{
  "source": "patent US20220281848A1",
  "about": "“PYRAZOLE-SUBSTITUTED PYRROLIDINONES AS HERBICIDES” (FMC Corporation, priority 2019, published 2022)",
  "tested_on": "plants",
  "experiment": "Test D pre-emergence, other plants of Tables D1 and D3",
  "format": "in vivo",
  "conditions": "preemergent",
  "in_short": "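Damage was rated visually from 0 (none) to 100 (total), at 20 DAA for pre-emergence and 15 d for post-emergence. Plants grew from safener-treated seed in a glasshouse at 24/18° C. or 20/16° C. day/night, 65% humidity, watered twice daily.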",
  "data": [
    {"smiles": "CN1CC(c2cc(Cl)n(C)n2)C(C(=O)Nc2ccc(F)c(F)c2F)C1=O", "note": "(racemic) [Compound 31]", "values": [
      {"measurement": "ABUTH damage to plant (100=total damage; 0=no damage)", "setting": "Rates 15, 20 DAA", "result": 0},
      {"measurement": "AMARE damage to plant (100=total damage; 0=no damage)", "setting": "Rates 15, 20 DAA", "result": 0},
      {"measurement": "BIDPI damage to plant (100=total damage; 0=no damage)", "setting": "Rates 15, 20 DAA", "result": 0},
      {"measurement": "BRAPL damage to plant (100=total damage; 0=no damage)", "setting": "Rates 15, 20 DAA", "result": 0},
      {"measurement": "CYPES damage to plant (100=total damage; 0=no damage)", "setting": "Rates 15, 20 DAA", "result": 0},
      {"measurement": "DIGSA damage to plant (100=total damage; 0=no damage)", "setting": "Rates 15, 20 DAA", "result": 0},
      {"measurement": "ECHCG damage to plant (100=total damage; 0=no damage)", "setting": "Rates 15, 20 DAA", "result": 0},
      {"measurement": "EPHHL damage to plant (100=total damage; 0=no damage)", "setting": "Rates 15, 20 DAA", "result": 0},
      {"measurement": "GLXMA damage to plant (100=total damage; 0=no damage)", "setting": "Rates 15, 20 DAA", "result": 0},
      {"measurement": "IPOHE damage to plant (100=total damage; 0=no damage)", "setting": "Rates 15, 20 DAA", "result": 0},
      {"measurement": "ORYSA damage to plant (100=total damage; 0=no damage)", "setting": "Rates 15, 20 DAA", "result": 0},
      {"measurement": "PANMI damage to plant (100=total damage; 0=no damage)", "setting": "Rates 15, 20 DAA", "result": 0},
      {"measurement": "SETFA damage to plant (100=total damage; 0=no damage)", "setting": "Rates 15, 20 DAA", "result": 0},
      {"measurement": "SORVU damage to plant (100=total damage; 0=no damage)", "setting": "Rates 15, 20 DAA", "result": 0},
      {"measurement": "ABUTH damage to plant (100=total damage; 0=no damage)", "setting": "Rates 30, 20 DAA", "result": 0},
      {"measurement": "AMARE damage to plant (100=total damage; 0=no damage)", "setting": "Rates 30, 20 DAA", "result": 0},
      {"measurement": "BIDPI damage to plant (100=total damage; 0=no damage)", "setting": "Rates 30, 20 DAA", "result": 0},
      {"measurement": "BRAPL damage to plant (100=total damage; 0=no damage)", "setting": "Rates 30, 20 DAA", "result": 10},
      {"measurement": "CYPES damage to plant (100=total damage; 0=no damage)", "setting": "Rates 30, 20 DAA", "result": 0},
      {"measurement": "DIGSA damage to plant (100=total damage; 0=no damage)", "setting": "Rates 30, 20 DAA", "result": 10},
      {"measurement": "ECHCG damage to plant (100=total damage; 0=no damage)", "setting": "Rates 30, 20 DAA", "result": 0},
      {"measurement": "EPHHL damage to plant (100=total damage; 0=no damage)", "setting": "Rates 30, 20 DAA", "result": 0},
      {"measurement": "GLXMA damage to plant (100=total damage; 0=no damage)", "setting": "Rates 30, 20 DAA", "result": 0},
      {"measurement": "IPOHE damage to plant (100=total damage; 0=no damage)", "setting": "Rates 30, 20 DAA", "result": 0},
      {"measurement": "ORYSA damage to plant (100=total damage; 0=no damage)", "setting": "Rates 30, 20 DAA", "result": 0},
      {"measurement": "PANMI damage to plant (100=total damage; 0=no damage)", "setting": "Rates 30, 20 DAA", "result": 0},
      {"measurement": "SETFA damage to plant (100=total damage; 0=no damage)", "setting": "Rates 30, 20 DAA", "result": 0},
      {"measurement": "SORVU damage to plant (100=total damage; 0=no damage)", "setting": "Rates 30, 20 DAA", "result": 0},
      {"measurement": "ABUTH damage to plant (100=total damage; 0=no damage)", "setting": "Rates 60, 20 DAA", "result": 0},
      {"measurement": "AMARE damage to plant (100=total damage; 0=no damage)", "setting": "Rates 60, 20 DAA", "result": 0},
      {"measurement": "BIDPI damage to plant (100=total damage; 0=no damage)", "setting": "Rates 60, 20 DAA", "result": 0},
      {"measurement": "BRAPL damage to plant (100=total damage; 0=no damage)", "setting": "Rates 60, 20 DAA", "result": 60},
      {"measurement": "CYPES damage to plant (100=total damage; 0=no damage)", "setting": "Rates 60, 20 DAA", "result": 0},
      {"measurement": "DIGSA damage to plant (100=total damage; 0=no damage)", "setting": "Rates 60, 20 DAA", "result": 50},
      {"measurement": "ECHCG damage to plant (100=total damage; 0=no damage)", "setting": "Rates 60, 20 DAA", "result": 30},
      {"measurement": "EPHHL damage to plant (100=total damage; 0=no damage)", "setting": "Rates 60, 20 DAA", "result": 0},
      {"measurement": "GLXMA damage to plant (100=total damage; 0=no damage)", "setting": "Rates 60, 20 DAA", "result": 0},
      {"measurement": "IPOHE damage to plant (100=total damage; 0=no damage)", "setting": "Rates 60, 20 DAA", "result": 0},
      {"measurement": "ORYSA damage to plant (100=total damage; 0=no damage)", "setting": "Rates 60, 20 DAA", "result": 0},
      {"measurement": "PANMI damage to plant (100=total damage; 0=no damage)", "setting": "Rates 60, 20 DAA", "result": 0},
      {"measurement": "SETFA damage to plant (100=total damage; 0=no damage)", "setting": "Rates 60, 20 DAA", "result": 10},
      {"measurement": "SORVU damage to plant (100=total damage; 0=no damage)", "setting": "Rates 60, 20 DAA", "result": 0},
      {"measurement": "ABUTH damage to plant (100=total damage; 0=no damage)", "setting": "Rates 130, 20 DAA", "result": 0},
      {"measurement": "AMARE damage to plant (100=total damage; 0=no damage)", "setting": "Rates 130, 20 DAA", "result": 0},
      {"measurement": "BIDPI damage to plant (100=total damage; 0=no damage)", "setting": "Rates 130, 20 DAA", "result": 0},
      {"measurement": "BRAPL damage to plant (100=total damage; 0=no damage)", "setting": "Rates 130, 20 DAA", "result": 80},
      {"measurement": "CYPES damage to plant (100=total damage; 0=no damage)", "setting": "Rates 130, 20 DAA", "result": 0},
      {"measurement": "DIGSA damage to plant (100=total damage; 0=no damage)", "setting": "Rates 130, 20 DAA", "result": 90},
      {"measurement": "ECHCG damage to plant (100=total damage; 0=no damage)", "setting": "Rates 130, 20 DAA", "result": 30},
      {"measurement": "EPHHL damage to plant (100=total damage; 0=no damage)", "setting": "Rates 130, 20 DAA", "result": 0},
      {"measurement": "GLXMA damage to plant (100=total damage; 0=no damage)", "setting": "Rates 130, 20 DAA", "result": 0},
      {"measurement": "IPOHE damage to plant (100=total damage; 0=no damage)", "setting": "Rates 130, 20 DAA", "result": 0},
      {"measurement": "ORYSA damage to plant (100=total damage; 0=no damage)", "setting": "Rates 130, 20 DAA", "result": 0},
      {"measurement": "PANMI damage to plant (100=total damage; 0=no damage)", "setting": "Rates 130, 20 DAA", "result": 0},
      {"measurement": "SETFA damage to plant (100=total damage; 0=no damage)", "setting": "Rates 130, 20 DAA", "result": 30},
      {"measurement": "SORVU damage to plant (100=total damage; 0=no damage)", "setting": "Rates 130, 20 DAA", "result": 0},
      {"measurement": "ABUTH damage to plant (100=total damage; 0=no damage)", "setting": "Rates 250, 20 DAA", "result": 0},
      {"measurement": "AMARE damage to plant (100=total damage; 0=no damage)", "setting": "Rates 250, 20 DAA", "result": 0},
      {"measurement": "BIDPI damage to plant (100=total damage; 0=no damage)", "setting": "Rates 250, 20 DAA", "result": 0},
      {"measurement": "BRAPL damage to plant (100=total damage; 0=no damage)", "setting": "Rates 250, 20 DAA", "result": 80},
      {"measurement": "CYPES damage to plant (100=total damage; 0=no damage)", "setting": "Rates 250, 20 DAA", "result": 0},
      {"measurement": "DIGSA damage to plant (100=total damage; 0=no damage)", "setting": "Rates 250, 20 DAA", "result": 90},
      {"measurement": "ECHCG damage to plant (100=total damage; 0=no damage)", "setting": "Rates 250, 20 DAA", "result": 80},
      {"measurement": "EPHHL damage to plant (100=total damage; 0=no damage)", "setting": "Rates 250, 20 DAA", "result": 0},
      {"measurement": "GLXMA damage to plant (100=total damage; 0=no damage)", "setting": "Rates 250, 20 DAA", "result": 0},
      {"measurement": "IPOHE damage to plant (100=total damage; 0=no damage)", "setting": "Rates 250, 20 DAA", "result": 0},
      {"measurement": "ORYSA damage to plant (100=total damage; 0=no damage)", "setting": "Rates 250, 20 DAA", "result": 0},
      {"measurement": "PANMI damage to plant (100=total damage; 0=no damage)", "setting": "Rates 250, 20 DAA", "result": 0},
      {"measurement": "SETFA damage to plant (100=total damage; 0=no damage)", "setting": "Rates 250, 20 DAA", "result": 20},
      {"measurement": "SORVU damage to plant (100=total damage; 0=no damage)", "setting": "Rates 250, 20 DAA", "result": 0},
      {"measurement": "ABUTH damage to plant (100=total damage; 0=no damage)", "setting": "Rates 500, 20 DAA", "result": 0},
      {"measurement": "AMARE damage to plant (100=total damage; 0=no damage)", "setting": "Rates 500, 20 DAA", "result": 0},
      {"measurement": "BIDPI damage to plant (100=total damage; 0=no damage)", "setting": "Rates 500, 20 DAA", "result": 0},
      {"measurement": "BRAPL damage to plant (100=total damage; 0=no damage)", "setting": "Rates 500, 20 DAA", "result": 90},
      {"measurement": "CYPES damage to plant (100=total damage; 0=no damage)", "setting": "Rates 500, 20 DAA", "result": 0},
      {"measurement": "DIGSA damage to plant (100=total damage; 0=no damage)", "setting": "Rates 500, 20 DAA", "result": 90},
      {"measurement": "ECHCG damage to plant (100=total damage; 0=no damage)", "setting": "Rates 500, 20 DAA", "result": 90},
      {"measurement": "EPHHL damage to plant (100=total damage; 0=no damage)", "setting": "Rates 500, 20 DAA", "result": 0},
      {"measurement": "GLXMA damage to plant (100=total damage; 0=no damage)", "setting": "Rates 500, 20 DAA", "result": 0},
      {"measurement": "IPOHE damage to plant (100=total damage; 0=no damage)", "setting": "Rates 500, 20 DAA", "result": 0},
      {"measurement": "ORYSA damage to plant (100=total damage; 0=no damage)", "setting": "Rates 500, 20 DAA", "result": 0},
      {"measurement": "PANMI damage to plant (100=total damage; 0=no damage)", "setting": "Rates 500, 20 DAA", "result": 0},
      {"measurement": "SETFA damage to plant (100=total damage; 0=no damage)", "setting": "Rates 500, 20 DAA", "result": 90},
      {"measurement": "SORVU damage to plant (100=total damage; 0=no damage)", "setting": "Rates 500, 20 DAA", "result": 0}
    ]}
  ]
}
